Results on one molecule are retold here after patent US20230092359A1, “GEMFIBROZIL FORMULATION” (Polaryx Therapeutics, Inc., priority 2020, published 2023).

The nature of data set [1]: Dissolution of free-form gemfibrozil in artificial saliva (USP <711> apparatus 2, HPLC). It counts as physicochemical. The settings on record: 4 hours; 600 mg in 900 mL pH 7.3 artificial saliva, 100 rpm, 37° C. (FIG. 1). The protocol: USP <711> dissolution apparatus 2 (paddle method) was used. Dissolution medium was 900 mL of artificial saliva, pH 7.30. The temperature was maintained at 37° C. The paddles were rotated at 100 RPM. Six-hundred milligrams of gemfibrozil was added into each vessel at t=0. Samples aliquots of 2 mL were taken at 0.25, 0.5, 1, 2, 3, and 4 hours and filtered immediately using a 0.45 μm Nylon membrane syringe filter, whereby the filtrate was diluted at a 1:1 ratio with methanol and then vortexed. Samples were analyzed by HPLC.

The conditions of data set [2]: cited from earlier work.
The next data set is described as follows: physchem. Conditions: pH 7.3, fassgf or other biorelevant, thermodynamic from solid.

Each structure is given as a SMILES string. Converted amounts (≈) assume the structure as drawn. Read-outs that look alike come from different tables or passages of the source.

Experimental for physchem: The solution was then mixed by vortexing or sonicating, until complete dissolution was observed.
Kinetic Solubilities/Visual Solubility Assessment—Weighed samples were treated with aliquots of solvent at ambient temperature unless otherwise indicated. Samples were typically sonicated between additions to facilitate dissolution. Complete dissolution was observed through visual inspection. Solubilities were calculated based on the total amount of solvent added to achieve complete dissolution and may be greater than the value reported due to incremental solvent addition and the inherent kinetics of dissolution. […] These values are approximate. These values may also over-represent the amount of solvent required given that solvent was added incrementally. Approximately 10 mg of gemfibrozil salt was weighed into a vial. Artificial saliva was added to the vial until complete dissolution was observed. Each volume addition was followed by vortex mixing or sonication and observation on the presence of solids was noted.
Solubility descriptors were used as follows—Practically insoluble refers to a compound that is soluble at less than 0.1 mg/ml in solution. […] Slightly soluble, refers to a compound that is soluble in an aqueous solution from 1 mg/ml to 10 mg/ml. Sparingly soluble, refers to a compound that is soluble in an aqueous solution from 10 mg/ml to 30 mg/ml. […]

Broadly, the solubility is the dissolved amount per volume that the medium holds. As for `Cc1ccc(C)c(OCCCC(C)(C)C(=O)O)c1` [Free Form, 5-(2,5-dimethylphenoxy)-2,2-dimethyl-pentanoic acid], the “average % of free-form gemfibrozil dissolved” value in data set [1] was determined as 78%. Further, the solubility was roughly 16000 µg/mL (≈ 63.9 mM) in data set [2] (in DMSO); “approximately 0.5 mg/mL” in data set [2] (in a 1:1 solution of ethanol:PBS); “approximately 30 mg/ml” in data set [2] (in ethanol); “approximately 0.03 mg/ml” in data set [2] (in water); less than 1100 µg/mL in the data set “physchem”.
